{
  "source": "patent US20060280690A1",
  "about": "“Methods of preparing a foam comprising a sclerosing agent” (priority 2003, published 2006)",
  "experiment": "In vitro absorption of foam/gas in fresh human venous blood",
  "assay_type": "in vitro ADME",
  "settings": "0.5 ml aliquot in 20 ml blood",
  "experimental": "In vitro experiments were conducted to determine the absorption of foam made with different gases in fresh human venous blood.\nA 20 ml polypropylene syringe barrel was prepared by puncturing its side wall with a relatively large hypodermic needle to make a hole approximately 1 mm in diameter. This hole was then covered by securing a piece of clear flexible vinyl sheet over it with clear adhesive tape. A small magnetic stirrer element was introduced into the syringe barrel and the plunger then replaced. 20 ml of human venous blood was then with withdrawn in the usual manner from a human subject using the specially prepared syringe fitted with a hypodermic needle.\nThe hypodermic needle was removed and the syringe then placed on a magnetic stirrer unit so that the magnetic element in the syringe thoroughly agitated the blood. The Luer nozzle of the syringe was then connected to a 50 cm piece of manometer tubing which was arranged horizontally and left open at one end. The manometer tubing was secured against a scale.\nA 0.5 ml measuring syringe with a fine pre-fitted needle was then filled with foam made from 1% polidocanol solution and air. The density of the foam was 0.13 g/ml (±0.03 g/ml), the liquid component making up approximately 13% of the total volume of foam (±3%).\nThe needle of the 0.5 ml syringe was then introduced through the vinyl sheet on the side wall of the 20 ml syringe. […] The 0.5 ml aliquot of foam was then injected quickly and simultaneously a timer started (t0). As the foam displaced blood in the 20 ml syringe, the column of blood from the 20 ml syringe was displaced into the manometer tubing and the distance along the tubing reached by the distal end of the blood column was noted against the scale. The scale itself comprised spaced marker lines equally spaced at about 1 cm intervals. It was determined that a distance of 45 intervals on this scale corresponded to an internal volume of in the manometer tubing of approximately 0.5 ml.\nAs the gas in the foam started to be absorbed by the blood, the blood in the manometer tubing started to recede back towards the syringe. After the column appeared to have stopped moving, the timer was stopped (tF). The position of the distal end was again noted.\nIn this experiment, the air foam test was only observed for a few minutes after tF. However, further experiments have been conducted by the inventors, the results of which are not formally recorded here, involving foam with a percentage of nitrogen. A 20 ml syringe of fresh human venous blood, as in the above experiments, was injected with a 0.5 ml aliquot of a foam containing a percentage of nitrogen. The contents of the syringe were agitated as above and a period of 24 hours allowed to elapse.",
  "data": [
    {"smiles": "O=O", "note": "[Oxygen, oxygen]", "values": [
      {"measurement": "Absorbed volume at tF", "value": 0.46, "unit": "mL"},
      {"measurement": "Unabsorbed gas %", "value": 8, "unit": "%"},
      {"measurement": "Unabsorbed gas ml", "value": 0.04, "unit": "mL"},
      {"measurement": "tF", "setting": "time until blood column stopped moving", "value": 140, "unit": "s"}
    ]}
  ]
}
